Activity calls are given as the source filed them.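 The calls were made as follows: active = half-maximal concentration for changing protein binding to DNA, from the fitted dose curve, below 10 micromolar; inactive = the rest.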
Biological target: Nuclear receptor subfamily 1 group D member 1 (Homo sapiens) (UniProt P20393)
Assay: modulators of Rev-erb alpha DNA binding, dose response, biochemical, FITC-DNA, fluorescence polarization (AID 1259321)

Chain of Nuclear receptor subfamily 1 group D member 1 (Homo sapiens) (P20393 whole entry, looked up): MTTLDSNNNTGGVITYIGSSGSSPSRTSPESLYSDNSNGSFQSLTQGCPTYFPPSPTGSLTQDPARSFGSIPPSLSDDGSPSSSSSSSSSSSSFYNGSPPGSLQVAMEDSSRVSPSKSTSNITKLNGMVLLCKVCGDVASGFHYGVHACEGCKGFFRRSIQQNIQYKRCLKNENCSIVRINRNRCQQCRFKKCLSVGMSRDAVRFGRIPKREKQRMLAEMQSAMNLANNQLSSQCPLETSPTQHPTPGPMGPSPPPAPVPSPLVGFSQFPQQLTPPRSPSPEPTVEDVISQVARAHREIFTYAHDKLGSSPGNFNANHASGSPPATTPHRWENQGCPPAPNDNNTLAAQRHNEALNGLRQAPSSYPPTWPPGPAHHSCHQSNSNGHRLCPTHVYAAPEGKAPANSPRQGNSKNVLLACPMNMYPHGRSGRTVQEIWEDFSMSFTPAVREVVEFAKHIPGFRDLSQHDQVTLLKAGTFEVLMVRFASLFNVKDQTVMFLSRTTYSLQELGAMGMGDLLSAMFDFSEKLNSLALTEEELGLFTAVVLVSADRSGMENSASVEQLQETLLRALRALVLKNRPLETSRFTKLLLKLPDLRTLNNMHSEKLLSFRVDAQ

| Structure (SMILES) | IC50 |
| --- | --- |
| O=C(CSc1ncnc2c1oc1ccccc12)Nc1ccccc1F | 7.81 µM |
| COc1ccccc1-c1ccc2c(c1)C(C)(Cc1cccc(F)c1)C(=O)N2 (stereo not given) | 7.15 µM |
| CCOC(=O)c1sc(=NC(=O)c2ccc(OC(C)C)cc2)n(C)c1C | 0.933 µM |
| Fc1cnc(N2CCc3ccccc32)nc1N1CCc2ccccc21 | 3.22 µM |
| COc1ccc(-n2ncc3c(N4CCc5ccccc54)ncnc32)cc1 | 8.26 µM |
| O=C(CSc1nnc(-c2cccs2)n1-c1cccc(Cl)c1)c1cccc2c1OCCO2 | 2.25 µM |
| COc1cc(C(=O)Nc2cccc(-c3nc4cc(C)ccc4o3)c2)cc(OC)c1OC | 4.32 µM |
| N#Cc1c(-c2cccs2)cc(C2CC2)nc1SCC(N)=O | 1.35 µM |
| CCOC(=O)c1sc(NC(=O)c2ccc(S(=O)(=O)N(C)C)cc2)nc1C | inactive |
| Brc1nc(-c2ccccc2)nc(-c2ccccc2)c1Br | > 40 µM (inactive) |
| CCN(CC)c1ccc(/C=C(\C#N)C(N)=S)cc1 | inactive |
| Cc1ccc2c(n1)sc1c(-c3ccccc3)c(C#N)c(N)nc12 | inactive |
| CCc1cc2cc3c(cc2nc1SCC(=O)Nc1cc(C)on1)OCO3 | 3.31 µM |
| CC(=O)c1cc2c(cc1N/C(=N/S(=O)(=O)c1ccccc1)c1ccc(Cl)cc1)OCO2 | inactive |
| COc1cccc(C(=O)Nc2ccc(-c3nc4ccccc4o3)c(O)c2)c1 | > 40 µM (inactive) |
| Cc1cc(C)c2nc(SCC(=O)NCC3CCCO3)c(C#N)cc2c1 (stereo not given) | inactive |
| CC1(Cc2ccccc2Cl)C(=O)Nc2ccc(OC(F)(F)F)cc21 (stereo not given) | 6.25 µM |
| COc1ccc(NC(=O)CSc2nc(N)c(C#N)cc2C#N)cc1 | 5.76 µM |
| O=C(CSc1nnc(-c2cccs2)n1-c1ccccc1)N1CCCc2ccccc21 | > 40 µM (inactive) |
| Cc1ccc2[nH]cc(/C=C/c3cc[n+](C)cc3)c2c1 | > 40 µM (inactive) |
| CCN(CC)S(=O)(=O)c1ccc(C(=O)OCCN2C(=O)c3cccc4c(N5CCOCC5)ccc(c34)C2=O)cc1 | > 40 µM (inactive) |
| Cc1ccc(S(=O)(=O)c2nnn3c2nc(N2CCN(c4ccccn4)CC2)c2ccccc23)cc1C | 3.36 µM |
| COc1ccc2c(COC(=O)c3n[nH]c4ccccc34)cc(=O)oc2c1 | > 40 µM (inactive) |
| COc1ccc(Cl)cc1C(=O)Nc1cccc(-c2ccc3nncn3n2)c1 | 7.26 µM |
| COc1ccc(-c2c(C)nc(N)nc2-c2ccc(OCc3ccc(C)cc3)cc2O)cc1OC | > 40 µM (inactive) |

| Structure (SMILES) | IC50 |
| --- | --- |
| CCN(CC)C(=O)CSc1nc(N)c(C#N)c(-c2cccs2)c1C#N | 8.24 µM |
| Cc1ccc2nc(N3CCN(S(=O)(=O)c4ccc(C)c(Cl)c4)CC3)c(C#N)cc2c1 | 3.31 µM |
| CN1C(=O)/C(=C\c2ccc(N3CCCCC3)o2)C(=O)NC1=S | 3.49 µM |
| CCN(CC)c1ccc2cc(C(=O)NCc3ccc(F)cc3)c(=N)oc2c1 | inactive |
| Cc1ccccc1NC(=O)c1sc(NC(=O)COc2ccccc2)c(C#N)c1C | > 40 µM (inactive) |
| CCN(CC)C(=O)CSc1nc(C)cc(-c2cccs2)c1C#N | 5.91 µM |
| COc1ccc(C(=O)c2ccc(OC)c(Br)c2)cc1Br | > 40 µM (inactive) |
| CC(=O)Nc1ccc(Nc2c3c4c(cccc4n(C)c2=O)C(=O)c2ccccc2-3)cc1 | 5.25 µM |
| COc1cc(/C=N/NC(=O)c2c(C)nc3ccc(Cl)cn23)cc(OC)c1OC | > 40 µM (inactive) |
| Cc1ccc(NC(=O)CSc2nc3ccccc3nc2N2CCOCC2)c(C)c1 | inactive |
| CCOC(=O)c1c(NC(=S)Nc2ccc(OC)cc2)sc2c1CCC2 | 5.93 µM |
| COC(=O)c1ccc(Cn2ccc3ccc(-c4ccc5ccn(C(=O)c6ccccc6C)c5c4)cc32)cc1 | 9.87 µM |
| O=C(CCc1c[nH]c2ccccc12)NCCc1ccc2c(c1)OCCO2 | 1.08 µM |
| CCSc1nnc(NC(=O)c2cc3c(s2)CCCC3)s1 | 1.58 µM |
| Oc1ccccc1-c1nc(NCc2ccccc2)c2ccccc2n1 | > 40 µM (inactive) |
| CCN1/C(=C/c2ccc3cc(C)cc(C)c3[n+]2CC)Sc2cc(C)ccc21 | > 40 µM (inactive) |
| CCOc1ccc(N=Nc2c(=O)[nH]n3c(=O)cc(C)[nH]c23)cc1 | > 40 µM (inactive) |
| C=CCn1c(=NC(=O)c2cccs2)sc2cc(NC(C)=O)ccc21 | inactive |
| Cc1cc(=O)oc2cc(NC(=O)c3cccc(F)c3)ccc12 | 1.02 µM |
| Cc1ccsc1C(=O)Nc1ccc(O)c(-c2nc3ccccc3s2)c1 | 6.87 µM |
| O=C(N=c1ccn(-c2nc3ccccc3nc2NS(=O)(=O)c2ccccc2)cc1)c1cccs1 | inactive |
| O=C(NCc1ccco1)c1ccc(Cn2c(=O)c3sccc3n(Cc3cccc(F)c3)c2=O)cc1 | > 40 µM (inactive) |
| COc1ccc2cc(C)c(SCC(=O)Nc3cc(C)on3)nc2c1 | > 40 µM (inactive) |
| COC(=O)c1ccccc1NC(=O)c1cn(-c2ccc(C)c(C)c2)c(=O)c2ccccc12 | inactive |
| O=C(CCn1c(SCC(=O)c2ccccc2)nc2ccccc2c1=O)NCc1ccc(F)cc1 | > 40 µM (inactive) |

| Structure (SMILES) | IC50 |
| --- | --- |
| Cc1onc(-c2ccccc2)c1C(=O)Nc1nc(-c2cc(F)ccc2F)cs1 | 4.24 µM |
| Cn1c(N)c(C(=O)CSc2nn(-c3ccc(F)cc3)c(=S)s2)c(=O)n(C)c1=O | > 40 µM (inactive) |
| CCOc1ccc2nc(N/C(N)=N/C(=S)Nc3cccc(C)c3)nc(C)c2c1 | 8.37 µM |
| Cc1ccc(C)c(-n2c(-c3ccc(Br)cc3)csc2=NC(=O)c2ccccc2F)c1 | inactive |
| CCc1nnc(NC(=O)c2oc3ccc(Br)cc3c2C)s1 | 6.22 µM |
| COc1ccc(C(=O)Nc2ccccc2C(=O)Nc2ccccc2)cc1 | 6.74 µM |
| CCc1cc2cc(C)cc(C)c2nc1SCC(=O)N1CCCC1 | > 40 µM (inactive) |
| CCOc1ccc(OCC)c(NC(=O)c2[nH]c(C)c(C(C)=O)c2C)c1 | 3.56 µM |
| COc1ccc2nc(SCC(=O)Nc3ccc4sc(C)nc4c3)c(C#N)cc2c1 | 1.98 µM |
| Fc1cccc2sc(Nc3nc4cc5c(cc4s3)OCCO5)nc12 | inactive |
| CCN(Cc1nc2cc(Cl)ccc2c(=O)[nH]1)C(=O)c1cc2c(s1)CCCCC2 | 3.21 µM |
| Cc1ccc(NC(=O)c2sc(Cl)nc2-c2ccccc2)cc1C | inactive |
| COC(=O)Cn1c(=NC(=O)c2ccc(OC)c(OC)c2)sc2cc(OC)ccc21 | > 40 µM (inactive) |
| Cc1cccc(C)c1NC(=O)COc1ccccc1C(=O)Nc1ccc(Br)cn1 | 4.34 µM |
| COC(=O)c1sc2nc3c(cc2c1N)C(=O)CC(C)(C)C3 | inactive |
| CCN1C(=O)/C(=C/C=C2/SCCN2C)SC1=S | inactive |
| Cc1c(Cl)cc(C(C)C)c(O)c1CN1CCOCC1 | > 40 µM (inactive) |
| Cc1cccc(NC(=O)C2CCCN(S(=O)(=O)c3cccc4nsnc34)C2)c1 (stereo not given) | 2.17 µM |
| COC(=O)c1sc2nc(-c3ccccc3)c3c(c2c1N)CCCC3 | inactive |
| CC(C)(C#N)Cc1cc(CC(C)(C)C#N)cc(C(C)(C)C)c1 | 4.07 µM |
| CCc1cc2cc(C)ccc2nc1SCC(=O)NC1CCCC1 | 3.66 µM |
| Clc1ccccc1-c1nn2c(-c3cc(-c4ccccc4)n[nH]3)nnc2s1 | > 40 µM (inactive) |
| CCc1nc2ccccc2c(C(=O)OCc2nc3ccccc3c(=O)[nH]2)c1C | > 40 µM (inactive) |
| CCc1nc(SCC(=O)NC2CCCC2)c2oc3ccccc3c2n1 | > 40 µM (inactive) |
| Cc1ccc(C2(C(F)(F)F)NC(=O)N3C(=C2C#N)Nc2ccccc23)cc1 (stereo not given) | 2.68 µM |

Source: PubChem BioAssay AID1259321 (Sanford-Burnham Center for Chemical Genomics, 2017)
